Experimental data from ChEMBL document CHEMBL1145343, “Inhibition of kinesin motor proteins by adociasulfate-2” (J Med Chem, 2006).

Experiments:
[1] = target: T1, Kinesin-like protein KIF11 (Homo sapiens, UniProt P52732); test: Inhibition of kinesin ATPase activity by enzyme-linked inorganic phosphate detection assay with 5 mins pre-incubation
T1 sequence (P52732 whole entry): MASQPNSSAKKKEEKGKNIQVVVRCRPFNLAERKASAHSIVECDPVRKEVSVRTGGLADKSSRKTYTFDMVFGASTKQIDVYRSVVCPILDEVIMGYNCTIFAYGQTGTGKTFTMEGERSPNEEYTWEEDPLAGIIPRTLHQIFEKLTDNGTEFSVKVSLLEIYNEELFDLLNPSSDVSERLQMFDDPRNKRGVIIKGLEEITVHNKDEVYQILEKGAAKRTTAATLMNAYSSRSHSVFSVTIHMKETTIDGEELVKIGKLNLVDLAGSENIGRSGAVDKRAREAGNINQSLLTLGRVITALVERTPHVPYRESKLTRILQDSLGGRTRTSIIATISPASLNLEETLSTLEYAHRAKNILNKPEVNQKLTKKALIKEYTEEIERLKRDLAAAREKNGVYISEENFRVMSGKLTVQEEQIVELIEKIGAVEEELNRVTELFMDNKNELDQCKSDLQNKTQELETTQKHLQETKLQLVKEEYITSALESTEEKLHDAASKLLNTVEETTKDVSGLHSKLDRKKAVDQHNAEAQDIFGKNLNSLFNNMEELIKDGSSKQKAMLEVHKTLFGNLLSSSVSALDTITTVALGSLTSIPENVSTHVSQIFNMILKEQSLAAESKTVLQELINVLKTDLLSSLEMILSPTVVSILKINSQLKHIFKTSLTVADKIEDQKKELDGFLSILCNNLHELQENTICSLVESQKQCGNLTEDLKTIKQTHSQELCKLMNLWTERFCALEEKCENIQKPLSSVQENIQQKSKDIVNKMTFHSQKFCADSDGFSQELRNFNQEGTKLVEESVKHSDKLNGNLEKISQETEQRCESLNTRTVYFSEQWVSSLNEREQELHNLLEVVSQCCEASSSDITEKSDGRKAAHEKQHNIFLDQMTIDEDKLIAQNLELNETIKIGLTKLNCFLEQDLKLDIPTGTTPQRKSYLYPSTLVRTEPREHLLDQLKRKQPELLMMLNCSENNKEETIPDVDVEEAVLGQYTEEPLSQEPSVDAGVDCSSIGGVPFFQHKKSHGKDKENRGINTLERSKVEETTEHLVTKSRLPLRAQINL

[2] = target: T1, Kinesin-like protein KIF11; test: Inhibition of kinesin ATPase activity by enzyme-linked inorganic phosphate detection assay without preincubation

CC1(C)CCC[C@]2(C)O[C@H]3CC[C@@]4(C)[C@@H](CC[C@]5(C)[C@@H]4CC[C@]4(C)c6c(OS(=O)(=O)O)ccc(OS(=O)(=O)O)c6C[C@@H]54)[C@]3(C)CC[C@@H]12 [ADOCIASULFATE-2]
IC50 [1]: 7.3 µM
IC50 [2]: 13.9 µM
